Data as given in PMC10283505, “CVM-1118 (foslinanib), a 2-phenyl-4-quinolone derivative, promotes apoptosis and inhibits vasculogenic mimicry via targeting TRAP1” (Pathology and Oncology Research, 2023).

Legend:
[1] = tested on: human melanoma (C8161) cells; test: In vitro VM assay (3D Matrigel tubular network); type: cell-based; details: 24 h
Experimental: Aggressive human melanoma (C8161) cells were seeded at 1.0 × 10^5 onto 3D polymerized LDEV-free Matrigel (75 μL; 14 mg/ml; Corning Cat. No. 356232) for VM analysis in 12-well dishes containing no drug or various concentrations of CVM-1118. Matrigel-coated dishes were photographed for tubular network formation after 24 h.

[2] = tested on: Nodal; test: Western blot of Nodal (ProNodal) protein; type: cell-based, human; details: C8161, 10 nM, 24 h, corrected to β-actin
Experimental: Cells at 80% confluence were rinsed with PBS, harvested by scrapping into a modified RIPA buffer plus protease inhibitor cocktail using 100 μL buffer per 1 × 10^6 cells. After sonication and centrifugation, the protein concentrations in the supernatants were determined using a BCA assay (Thermo Fisher Scientific). […] Nodal was detected using a mouse monoclonal anti-Nodal antibody (sc-373910; Santa Cruz; 1 μg/ml in 20 mM Tris/150 mM NaCl/0.1% [w/v] Tween 20, pH 7.4 [TBST] plus 5% BSA) followed by an anti-mouse plus horseradish peroxidase (HRP) secondary antibody (NXA931; GE Healthcare; 1 μg/ml in TBST plus 5% BSA) and enhanced chemiluminescence (ECL; GE Healthcare). Smad2 was detected using a rabbit polyclonal anti-Smad2/3 antibody (07-408; Millipore; 1 μg/ml in TBST plus 5% BSA) followed by an anti-rabbit plus HRP secondary antibody (NA934V; GE Healthcare; 1 μg/ml in TBST plus 5% BSA) and ECL. […] To assess relative changes in protein expression, the exposed films were digitized using a ChemiDoc XRS imager (Bio-Rad Laboratories) and the relative amount of protein determined against the untreated control cells normalized to a value of 1.0 using the imager’s Quantity One software package (Bio-Rad Laboratories) and corrected for loading of protein into each lane against the β-actin protein measured in the control lane.

[3] = Cell viability at VM-inhibiting concentration; type: cell-based; details: human, human melanoma cells; 10 nM; read-out: percentage of viable cells
[4] = tested on: HCT-15; test: NCI 60 cytotoxicity screening; type: cell-based; details: Homo sapiens; HCT-15, Colon
[5] = tested on: SF-295; test: NCI 60 cytotoxicity screening; type: cell-based; details: Homo sapiens; SF-295, CNS
[6] = tested on: SK-MEL-5; test: NCI 60 cytotoxicity screening; type: cell-based; details: Homo sapiens; SK-MEL-5, Melanoma
[7] = tested on: SNB-19; test: NCI 60 cytotoxicity screening; type: cell-based; details: Homo sapiens; SNB-19, CNS
[8] = tested on: EKVX; test: NCI 60 cytotoxicity screening; type: cell-based; details: Homo sapiens, NSCLC
[9] = tested on: NCI-H23; test: NCI 60 cytotoxicity screening; type: cell-based; details: Homo sapiens; NCI-H23, NSCLC
[10] = molecular target: T1, TRAP1 (Homo sapiens, UniProt Q12931); test: In vitro ATPase assay; type: biochemical; details: data not shown
T1 sequence (Q12931 60-704): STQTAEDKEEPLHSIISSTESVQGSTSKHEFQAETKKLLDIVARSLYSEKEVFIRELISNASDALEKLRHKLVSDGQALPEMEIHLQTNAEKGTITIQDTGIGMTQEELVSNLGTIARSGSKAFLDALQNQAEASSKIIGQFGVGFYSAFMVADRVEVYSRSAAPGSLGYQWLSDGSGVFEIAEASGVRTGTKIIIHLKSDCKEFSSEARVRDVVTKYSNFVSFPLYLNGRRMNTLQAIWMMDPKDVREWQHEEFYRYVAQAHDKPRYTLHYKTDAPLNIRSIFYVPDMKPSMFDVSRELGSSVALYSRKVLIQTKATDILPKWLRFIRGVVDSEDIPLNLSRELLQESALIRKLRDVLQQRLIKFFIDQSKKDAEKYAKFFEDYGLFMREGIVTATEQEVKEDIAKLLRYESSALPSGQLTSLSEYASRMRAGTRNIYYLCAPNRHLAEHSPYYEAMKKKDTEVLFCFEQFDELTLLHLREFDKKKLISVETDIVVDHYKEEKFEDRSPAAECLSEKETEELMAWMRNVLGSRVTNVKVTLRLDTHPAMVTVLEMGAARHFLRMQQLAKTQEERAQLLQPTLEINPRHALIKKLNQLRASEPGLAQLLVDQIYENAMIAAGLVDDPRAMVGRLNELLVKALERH

[11] = tested on: M14; test: NCI 60 cytotoxicity screening; type: cell-based; details: Homo sapiens; M14, Melanoma
[12] = tested on: MCF7; test: NCI 60 cytotoxicity screening; type: cell-based; details: Homo sapiens; MCF7, Breast

SMILES: COc1ccc2[nH]c(-c3cccc(F)c3)cc(=O)c2c1OP(=O)(O)O [CVM-1118]
- VM (in vitro) tubular network formation ([1]; C8161, 5 nM): disrupted
- VM (in vitro) tubular network formation ([1]; C8161, 10 nM): significantly inhibited
- VM (in vitro) tubular network formation ([1]; C8161, 50 nM): significantly inhibited
- reduction of Nodal protein levels [2]: 63%
- viability at 0.01 µM [3]: > 90%

SMILES: COc1ccc2[nH]c(-c3cccc(F)c3)cc(=O)c2c1O [CVM-1125]
- GI50 [4]: 35.5 nM
- GI50 [5]: 25.5 nM
- GI50 [6]: 29.8 nM
- GI50 [7]: 28.8 nM
- GI50 [8]: 46.1 nM
- GI50 [9]: 34.5 nM
- influence on the ATPase activity of TRAP1 [10]: no influence
- GI50 [11]: 18.9 nM
- GI50 [12]: 29.9 nM
